{
  "source": "patent US10833345B2",
  "about": "“Materials for high-performance aqueous organic redox flow batteries” (UNIVERSITY OF SOUTHERN CALIFORNIA, priority 2016, dated 2020)",
  "key": {"[1]": {"assay": "Rate of crossover through NAFION 117 membrane", "format": "physicochemical", "settings": "for crossover rate rank order: over 192 hours; for concentration appearing by crossover through the membrane: 192 hours", "description": "In another embodiment, compounds for the first redox couple 22 and/or the second redox couple 32 of FIG. 1 that reduce crossover between the anode and cathode compartments are provided. The crossover of the redox active species across the cell is largely determined by the molecular size. Examples of the redox compounds of this embodiment include, but are not limited to, para-toluene sulfonic acid (p-TSA), 2,6-dimethyl-1,4-dihydroxy benzene 3-mono-sulfonic acid, 1,2-dihydroxybenzene-3,5-disulfonic acid (BQDS), and anthraquinone-2,7-disulfonic acid (AQDS). The rate of crossover of the various types of positive electrode materials through a NAFION® 117 membrane was measured. The concentration of p-TSA appearing by crossover through the membrane is found to be much higher than that of the DMDHMS and BQDS (FIG. 6). […] The crossover rate measured over a period of 192 hours provided a rank order of p-TSA>DMDHMS≈BQDS>>AQDS. This rank order correlates with molecular size. The molecules of smaller size will diffuse more readily through the proton conducting membrane. Therefore, it is claimed that by modifying the size of the molecule we can suppress or reduce crossover. The redox active molecules that are prone to crossover may be modified in the size by either applying substituent groups. Such substituent groups can be simple methyl groups, sulfonic acid groups, alkyl groups, branched alkyls such as tertiary butyl, aromatic groups such as phenyl or benzyl groups, multi-ring aromatic groups such as naphthyl, anthracenyl (with or without substituents) amino, quaternary amino, keto, carboxyl and quinone groups. Examples of such redox active molecules with substituents that are enhanced in molecular size include the following compounds having formula II, III, and IV: […]"}, "[2]": {"assay": "Cyclic voltammetry of redox couples in alkaline electrolyte", "format": "physicochemical", "settings": "for reduction potential: vs. mercury/mercuric oxide reference electrode (MMO)", "description": "The redox couples must be soluble in the alkaline electrolyte and must can undergo facile electron transfer.\nThe reduction potential for this couple in alkaline electrolyte is about −0.35 V vs. MMO.\nWhile these compounds are not suitable for operation in acidic media because of the attendant polymerization reactions, these compounds perform well in alkaline media. […] The reduction potentials are quite negative relative to the last example of DHA. Consequently, this may be combined with AQDS to form a redox flow battery.\nThe electrochemical reversibility of such a Michael addition-resistant compound is shown in FIG. 29 for benzenedi-hydroxy tetracarboxylic acid also called hydroquinonetetracarboxylic acid (HQTC). […] The reduction potential of HQTC is such that it can be combined with DHA to create a redox flow battery with a cell voltage of 0.5 V (FIG. 30). Further HQTC can also be combined with the molecules from the quinoxaline family, and the flavin family to yield redox flow batteries with the cell voltage in the range of 0.5 to 1 V. 1,2,4-trihydroxyanthraquinone (Purpurin) is claimed to be a negative electrode material suitable for operation in alkaline media."}, "[3]": {"assay": "Rotating disk electrode study of hydroxyl-substituted anthraquinones in NaOH", "format": "physicochemical", "settings": "Hydroxy anthraquinones in NaOH", "description": "Bifunctional redox molecules can also be a molecule with different redox properties in various ranges of potentials. This type of molecule is typified by the substituted hydroxy anthraquinones. In this regard, redox properties of several substituted anthraquinones have been studies. Electrochemistry experiments on the rotating disk electrode confirm the existence of two diffusion limited regions separated by a significant potential difference of 0.5 V to 1.0 V for certain types of substitutions (FIG. 6). For these molecules, two different redox processes occur at different potentials. Those molecules which have hydroxyl substituents in positions such as 1,2- and 1, 4- are particularly suitable for this purpose.\nIn Table 2 below we summarize the properties of these types of substituted anthraquinones that can be used on both as positive and negative electrode materials and others that have similar moieties but are not suitable for this type of deployment. The use of these molecules is suitable for use both acidic and alkaline media as shown by the rotating electrode studies."}, "[4]": {"assay": "Cyclic voltammetry and redox cell states of AMBSA", "format": "physicochemical", "settings": "FIG. 4"}, "[5]": {"assay": "Crossover rate through NAFION 324 versus NAFION 117 membrane", "format": "physicochemical", "settings": "NAFION 324 (25-micron EW 1500 layer, 150-micron EW 1100 layer) vs NAFION 117 (EW 1100)", "description": "In a variation, the reduced rate of crossover of the redox active molecules is achieved by using a membrane with a higher equivalent weight of NAFION®. The membrane NAFION® 324, has a 25-micron layer of equivalent weight 1500 and a 150-micron layer of equivalent weight 1100. The crossover rate of DMDHMS through such a membrane is just 0.65 of that through a homogenous NAFION® 117 membrane that has an equivalent weight of 1100 throughout the membrane."}, "[6]": {"assay": "Charge and discharge cycling of organic redox flow cells", "settings": "cell with anthraquinone-2,7-disulfonic acid, 0.5 M each", "description": "In another embodiment, the effects of crossover can be mitigated by using a mixture of positive and negative electrolyte materials in equimolar quantities at both the electrodes. When such a mixture is charged only the positive electrolyte component will undergo oxidation reaction at the positive electrode and the negative electrolyte material will undergo reduction reactions at the negative electrode. Since the concentration of the redox active species is identical even if crossover occurs, the positive electrolyte material occurred to the negative electrolyte side this change in concentration will be balanced by back diffusion. Thus, there might be self-discharge but no permanent capacity loss or compositional change of the electrolyte. Any two redox couples that qualify as positive and negative electrolyte materials can be mixed in equimolar proportions and used as the electrolyte. We have shown the feasibility of rechargeability of this type of mixed materials using DMDHMS and AQDS (FIG. 8). Nearly 100% of the charge input was returned during discharge.\nBased on the electrode potentials, the DHA can serve as the negative electrolyte and the AQDS can serve as the positive electrolyte. […] The cell was charged and discharged at 8 mA/cm^2. The value of cell voltage was consistent with that expected from the reduction potential of the redox couples. […]"}, "[7]": {"settings": "alkaline electrolyte, 1 M potassium hydroxide"}},
  "data": [
    {"smiles": "O=S(=O)(O)c1cc(O)c(O)c(S(=O)(=O)O)c1", "note": "[BQDS, 1,2-dihydroxybenzene-3,5-disulfonic acid]", "values": [
      {"measurement": "crossover rate rank order", "setting": "[1]", "result": "p-TSA>DMDHMS≈BQDS>>AQDS"}
    ]},
    {"smiles": "O=C1c2cccc(O)c2C(=O)c2c(O)cccc21", "note": "[DHA, 1,8-dihydroxyanthraquinone]", "values": [
      {"measurement": "electrochemical behavior (cyclic voltammogram)", "setting": "[2]; 1 M sodium hydroxide", "result": "reversible electrochemical reaction"},
      {"measurement": "reduction potential", "setting": "[2]; 1 M sodium hydroxide", "result": "about −0.7 V"}
    ]},
    {"smiles": "O=C1c2ccccc2C(=O)c2c1cc(S(=O)(=O)O)c(O)c2O", "note": "[1,2-dihydroxy, 3-sulfonic acid anthraquinone]", "values": [
      {"measurement": "Di-Couple Potential (yes/no)", "setting": "[3]", "result": "Yes"},
      {"measurement": "Di-Couple Potential difference", "setting": "[3]", "result": 930, "unit": "mV"},
      {"measurement": "E1/2(Volts) vs MMO", "setting": "[3]", "result": "−0.75", "unit": "V"}
    ]},
    {"smiles": "O=C1c2ccccc2C(=O)c2cc(Cc3cc(O)cc(S(=O)(=O)O)c3O)ccc21", "note": "[AMBSA, 2-anthraquinonemethyl (p-benzoquinol sulfonic acid)]", "values": [
      {"measurement": "cyclic voltammogram peaks", "setting": "[4]", "result": "two distinct peaks"}
    ]},
    {"smiles": "O=C1c2ccccc2C(=O)c2c(O)ccc(O)c21", "note": "[1,4-dihydroxy anthraquinone]", "values": [
      {"measurement": "Di-Couple Potential (yes/no)", "setting": "[3]", "result": "Yes"},
      {"measurement": "Di-Couple Potential difference", "setting": "[3]", "result": 880, "unit": "mV"},
      {"measurement": "E1/2(Volts) vs MMO", "setting": "[3]", "result": "−0.63", "unit": "V"}
    ]},
    {"smiles": "O=C1c2ccccc2C(=O)c2c1ccc(O)c2O", "note": "[difference1,2-dihydroxy anthraquinone, 1,2-dihydroxy anthraquinone]", "values": [
      {"measurement": "Di-Couple Potential (yes/no)", "setting": "[3]", "result": "Yes"},
      {"measurement": "Di-Couple Potential difference", "setting": "[3]", "result": 1, "unit": "V"},
      {"measurement": "E1/2(Volts) vs MMO", "setting": "[3]", "result": "−0.73", "unit": "V"}
    ]},
    {"smiles": "O=C1c2ccc(O)cc2C(=O)c2ccc(O)cc21", "note": "[2,6-dihydroxy anthraquinone]", "values": [
      {"measurement": "Di-Couple Potential (yes/no)", "setting": "[3]", "result": "No"},
      {"measurement": "E1/2(Volts) vs MMO", "setting": "[3]", "result": "−0.8", "unit": "V"}
    ]},
    {"smiles": "Cc1cc(O)c(S(=O)(=O)O)c(C)c1O", "note": "[DMDHMS, 2,6-dimethyl-1,4-dihydroxybenzene-3-sulfonic acid]", "values": [
      {"measurement": "crossover rate rank order", "setting": "[1]", "result": "p-TSA>DMDHMS≈BQDS>>AQDS"},
      {"measurement": "crossover rate through NAFION 324 relative to NAFION 117", "setting": "[5]", "result": 0.65}
    ]},
    {"smiles": "O=C(O)c1c(O)c(C(=O)O)c(C(=O)O)c(O)c1C(=O)O", "note": "[HQTC, hydroquinonetetracarboxylic acid]", "values": [
      {"measurement": "electrochemical behavior (cyclic voltammogram)", "setting": "[2]; [7]", "result": "reversible electrochemical behavior with two different sets of peaks"}
    ]},
    {"smiles": "Cc1cc(O)c(C)c(S(=O)(=O)O)c1O", "note": "[2,5-dimethyl-1,4-dihydroxybenzene-3-sulfonic acid]", "values": [
      {"measurement": "resistance to Michael reaction, cycles of charge and discharge", "setting": "[6]", "result": "at least 100 cycles"}
    ]},
    {"smiles": "O=C1c2cccc(O)c2C(=O)c2cccc(O)c21", "note": "[1,5-dihydroxy anthraquinone]", "values": [
      {"measurement": "Di-Couple Potential (yes/no)", "setting": "[3]", "result": "No"},
      {"measurement": "E1/2(Volts) vs MMO", "setting": "[3]", "result": "−0.65", "unit": "V"}
    ]},
    {"smiles": "c1ccc2nccnc2c1", "note": "[quinoxaline]", "values": [
      {"measurement": "electrochemical behavior (cyclic voltammogram)", "setting": "[2]; [7]", "result": "reversible electrochemical behavior"}
    ]},
    {"smiles": "Cc1ccc(S(=O)(=O)O)cc1", "note": "[p-TSA, para-toluene sulfonic acid, reference compound]", "values": [
      {"measurement": "concentration appearing by crossover through the membrane", "setting": "[1]", "result": "much higher"},
      {"measurement": "crossover rate rank order", "setting": "[1]", "result": "p-TSA>DMDHMS≈BQDS>>AQDS"}
    ]},
    {"smiles": "O=C1c2ccc(S(=O)(=O)O)cc2C(=O)c2cc(S(=O)(=O)O)ccc21", "note": "[AQDS, anthraquinone-2,7-disulfonic acid]", "values": [
      {"measurement": "concentration appearing by crossover through the membrane", "setting": "[1]", "result": "not detected"},
      {"measurement": "crossover rate rank order", "setting": "[1]", "result": "p-TSA>DMDHMS≈BQDS>>AQDS"},
      {"measurement": "electrochemical behavior (cyclic voltammogram)", "setting": "[2]; 1 M sodium hydroxide", "result": "reversible electrochemical behavior"},
      {"measurement": "reduction potential", "setting": "[2]; 1 M sodium hydroxide", "result": "about −0.35 V"}
    ]},
    {"smiles": "O=C1c2ccccc2C(=O)c2c(O)c(O)cc(O)c21", "note": "[1,2,4-trihydroxy anthraquinone]", "values": [
      {"measurement": "Di-Couple Potential (yes/no)", "setting": "[3]", "result": "Yes"},
      {"measurement": "Di-Couple Potential difference", "setting": "[3]", "result": 840, "unit": "mV"},
      {"measurement": "E1/2(Volts) vs MMO", "setting": "[3]", "result": "−0.84", "unit": "V"}
    ]}
  ]
}
